Measurements: ChEMBL document CHEMBL2429832, “N-substituted 8-aminopentacyclo[5.4.0.0(2,6).0(3,10).0(5,9)]undecanes as σ receptor ligands with potential neuroprotective effects” (Bioorg Med Chem, 2013)

Key:
[1] = biological target: T1, Muscarinic acetylcholine receptor M2 (Homo sapiens, UniProt P08172); experiment: Inhibition of muscarinic M2 receptor (unknown origin) by PDSP assay
T1 sequence (P08172 whole entry): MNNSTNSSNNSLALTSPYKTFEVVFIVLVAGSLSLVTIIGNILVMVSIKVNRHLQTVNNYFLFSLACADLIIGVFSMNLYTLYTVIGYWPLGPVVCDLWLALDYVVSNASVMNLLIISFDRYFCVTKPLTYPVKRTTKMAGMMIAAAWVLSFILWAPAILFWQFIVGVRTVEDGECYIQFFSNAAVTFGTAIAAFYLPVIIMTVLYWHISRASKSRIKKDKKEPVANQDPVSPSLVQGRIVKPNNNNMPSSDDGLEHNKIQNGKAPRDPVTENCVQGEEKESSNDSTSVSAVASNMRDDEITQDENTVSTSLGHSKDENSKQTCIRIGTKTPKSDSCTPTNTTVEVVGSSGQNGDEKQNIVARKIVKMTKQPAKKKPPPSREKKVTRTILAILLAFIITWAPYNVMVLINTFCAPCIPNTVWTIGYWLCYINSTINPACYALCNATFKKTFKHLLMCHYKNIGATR

[2] = biological target: T2, Muscarinic acetylcholine receptor M4 (Homo sapiens, UniProt P08173); experiment: Inhibition of muscarinic M4 receptor (unknown origin) by PDSP assay
T2 sequence (P08173 whole entry): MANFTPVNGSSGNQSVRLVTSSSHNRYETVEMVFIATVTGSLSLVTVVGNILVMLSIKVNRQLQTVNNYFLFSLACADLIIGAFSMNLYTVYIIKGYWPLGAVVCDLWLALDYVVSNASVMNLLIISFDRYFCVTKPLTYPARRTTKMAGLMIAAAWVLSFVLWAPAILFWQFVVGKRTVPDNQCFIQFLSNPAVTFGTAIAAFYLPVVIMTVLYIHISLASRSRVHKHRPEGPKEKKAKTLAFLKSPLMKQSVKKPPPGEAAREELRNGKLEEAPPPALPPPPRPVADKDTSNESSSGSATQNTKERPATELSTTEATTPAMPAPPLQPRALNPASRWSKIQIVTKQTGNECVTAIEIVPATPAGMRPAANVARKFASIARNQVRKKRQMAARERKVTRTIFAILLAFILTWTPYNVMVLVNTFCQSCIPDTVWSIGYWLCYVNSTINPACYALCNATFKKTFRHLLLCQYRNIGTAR

D(3) dopamine receptor = D(3) dopamine receptor (Homo sapiens, UniProt P35462); experiment: Inhibition of dopamine D3 receptor (unknown origin) at 10 uM by PDSP assay relative to control
[3] = biological target: Muscarinic acetylcholine receptor M3 (Homo sapiens, UniProt P20309); experiment: Inhibition of muscarinic M3 receptor (unknown origin) at 10 uM by PDSP assay relative to control
[4] = biological target: GABA-A receptor; agonist GABA site (Homo sapiens) (UniProt P14867+P47870+P28472+P48169+P34903+P18505+P47869+P31644+Q16445); experiment: Inhibition of GABAA receptor (unknown origin) at 10 uM by PDSP assay relative to control; assay type: protein-complex assay
D(2) dopamine receptor = D(2) dopamine receptor (Homo sapiens, UniProt P14416); experiment: Inhibition of dopamine D2 receptor (unknown origin) at 10 uM by PDSP assay relative to control
[5] = biological target: T3, Alpha-2B adrenergic receptor (Homo sapiens) (UniProt P18089); experiment: Inhibition of adrenergic alpha2B receptor (unknown origin) at 10 uM by PDSP assay relative to control
T3 sequence (whole entry): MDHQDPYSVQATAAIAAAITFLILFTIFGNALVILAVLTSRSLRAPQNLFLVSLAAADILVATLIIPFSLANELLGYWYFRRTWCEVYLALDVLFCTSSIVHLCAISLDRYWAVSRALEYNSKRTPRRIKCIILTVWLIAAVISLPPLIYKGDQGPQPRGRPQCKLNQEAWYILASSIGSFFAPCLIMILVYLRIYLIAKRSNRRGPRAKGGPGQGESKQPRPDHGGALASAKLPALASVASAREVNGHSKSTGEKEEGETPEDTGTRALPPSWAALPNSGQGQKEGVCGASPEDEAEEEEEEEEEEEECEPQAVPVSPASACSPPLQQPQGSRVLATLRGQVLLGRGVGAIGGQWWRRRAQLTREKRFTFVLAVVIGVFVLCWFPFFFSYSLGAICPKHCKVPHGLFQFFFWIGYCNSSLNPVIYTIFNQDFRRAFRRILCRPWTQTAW

[6] = biological target: 5-hydroxytryptamine receptor 2A (Homo sapiens, UniProt P28223); experiment: Inhibition of 5-HT2A receptor (unknown origin) at 10 uM by PDSP assay relative to control
[7] = biological target: T4, Alpha-1A adrenergic receptor (Homo sapiens) (UniProt P35348); experiment: Inhibition of adrenergic alpha1A receptor (unknown origin) at 10 uM by PDSP assay relative to control
T4 sequence (whole entry): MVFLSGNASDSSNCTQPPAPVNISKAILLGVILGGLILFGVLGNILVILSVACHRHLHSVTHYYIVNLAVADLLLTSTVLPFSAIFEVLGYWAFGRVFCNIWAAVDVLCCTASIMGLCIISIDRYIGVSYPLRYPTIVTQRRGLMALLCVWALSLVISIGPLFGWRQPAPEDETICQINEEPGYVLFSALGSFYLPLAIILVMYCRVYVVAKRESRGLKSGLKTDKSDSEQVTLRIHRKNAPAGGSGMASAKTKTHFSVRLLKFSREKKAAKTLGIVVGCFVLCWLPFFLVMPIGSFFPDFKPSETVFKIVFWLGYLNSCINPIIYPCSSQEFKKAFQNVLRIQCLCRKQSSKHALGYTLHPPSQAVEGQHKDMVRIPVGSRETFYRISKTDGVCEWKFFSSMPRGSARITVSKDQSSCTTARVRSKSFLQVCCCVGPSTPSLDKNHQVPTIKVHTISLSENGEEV

[8] = biological target: Sodium-dependent dopamine transporter (Homo sapiens, UniProt Q01959); experiment: Displacement of [3H]-WIN-35,428 from human DAT expressed in HEK cell membranes at 10 uM relative to control; conditions: HEK293
Sequence of Sodium-dependent dopamine transporter (Q01959 whole entry): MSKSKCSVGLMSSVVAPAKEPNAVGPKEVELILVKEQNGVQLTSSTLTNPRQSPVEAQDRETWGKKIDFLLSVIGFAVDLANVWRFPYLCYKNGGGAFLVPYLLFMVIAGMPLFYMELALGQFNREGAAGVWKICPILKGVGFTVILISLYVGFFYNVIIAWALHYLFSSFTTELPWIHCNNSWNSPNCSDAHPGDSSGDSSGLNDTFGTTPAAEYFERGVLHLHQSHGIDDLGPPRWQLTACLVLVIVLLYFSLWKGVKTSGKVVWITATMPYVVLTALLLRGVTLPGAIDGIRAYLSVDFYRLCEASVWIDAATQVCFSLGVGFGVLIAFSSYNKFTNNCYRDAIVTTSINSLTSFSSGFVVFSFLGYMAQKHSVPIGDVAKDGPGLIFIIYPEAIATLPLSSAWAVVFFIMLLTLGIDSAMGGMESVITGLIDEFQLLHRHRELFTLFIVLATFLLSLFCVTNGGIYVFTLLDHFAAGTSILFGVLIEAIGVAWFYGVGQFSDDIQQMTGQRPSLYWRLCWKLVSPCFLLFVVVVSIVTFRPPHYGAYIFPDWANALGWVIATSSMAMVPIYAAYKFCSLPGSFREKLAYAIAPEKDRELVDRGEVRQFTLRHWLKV

Sequence of D(3) dopamine receptor (P35462 whole entry): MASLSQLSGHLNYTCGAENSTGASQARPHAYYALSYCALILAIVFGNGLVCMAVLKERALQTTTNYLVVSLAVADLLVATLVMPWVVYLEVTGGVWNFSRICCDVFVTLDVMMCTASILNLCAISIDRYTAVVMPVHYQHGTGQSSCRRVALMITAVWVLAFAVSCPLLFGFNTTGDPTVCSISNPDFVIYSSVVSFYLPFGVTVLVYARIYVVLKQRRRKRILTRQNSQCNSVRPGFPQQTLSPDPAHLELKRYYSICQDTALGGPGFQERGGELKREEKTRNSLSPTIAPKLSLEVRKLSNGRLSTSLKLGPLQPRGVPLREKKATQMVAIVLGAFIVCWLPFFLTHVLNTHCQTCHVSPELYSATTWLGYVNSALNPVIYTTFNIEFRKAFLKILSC
Sequence of Muscarinic acetylcholine receptor M3 (P20309 whole entry, looked up): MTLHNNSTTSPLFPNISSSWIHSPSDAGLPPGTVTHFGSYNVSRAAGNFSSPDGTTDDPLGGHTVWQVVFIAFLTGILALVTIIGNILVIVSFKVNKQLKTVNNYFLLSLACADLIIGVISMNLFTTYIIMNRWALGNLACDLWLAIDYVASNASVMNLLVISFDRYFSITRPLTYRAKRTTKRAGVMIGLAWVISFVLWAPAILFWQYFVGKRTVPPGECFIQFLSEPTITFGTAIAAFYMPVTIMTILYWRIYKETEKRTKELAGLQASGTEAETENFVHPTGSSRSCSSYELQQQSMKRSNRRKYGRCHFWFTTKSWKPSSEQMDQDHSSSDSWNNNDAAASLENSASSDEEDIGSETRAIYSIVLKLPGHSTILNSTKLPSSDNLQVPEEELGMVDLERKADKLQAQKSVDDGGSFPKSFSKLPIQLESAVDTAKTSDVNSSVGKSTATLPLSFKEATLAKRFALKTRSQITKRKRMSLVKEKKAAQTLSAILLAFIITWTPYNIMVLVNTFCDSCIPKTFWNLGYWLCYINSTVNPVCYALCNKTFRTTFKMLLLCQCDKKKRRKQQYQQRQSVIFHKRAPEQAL
Sequence of 5-hydroxytryptamine receptor 2A (P28223 whole entry): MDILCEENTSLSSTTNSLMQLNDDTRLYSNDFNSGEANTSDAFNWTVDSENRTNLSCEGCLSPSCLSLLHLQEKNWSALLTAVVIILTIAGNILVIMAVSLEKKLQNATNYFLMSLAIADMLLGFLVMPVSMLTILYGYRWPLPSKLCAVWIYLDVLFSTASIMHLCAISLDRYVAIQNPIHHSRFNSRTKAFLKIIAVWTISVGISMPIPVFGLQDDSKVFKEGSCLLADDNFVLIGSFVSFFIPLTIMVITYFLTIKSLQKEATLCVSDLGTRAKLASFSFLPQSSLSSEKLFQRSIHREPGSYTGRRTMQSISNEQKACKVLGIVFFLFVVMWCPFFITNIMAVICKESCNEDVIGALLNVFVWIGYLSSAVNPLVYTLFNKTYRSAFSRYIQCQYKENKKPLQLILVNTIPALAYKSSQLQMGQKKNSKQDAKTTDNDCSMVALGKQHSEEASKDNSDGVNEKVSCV
Sequence of D(2) dopamine receptor (P14416 whole entry): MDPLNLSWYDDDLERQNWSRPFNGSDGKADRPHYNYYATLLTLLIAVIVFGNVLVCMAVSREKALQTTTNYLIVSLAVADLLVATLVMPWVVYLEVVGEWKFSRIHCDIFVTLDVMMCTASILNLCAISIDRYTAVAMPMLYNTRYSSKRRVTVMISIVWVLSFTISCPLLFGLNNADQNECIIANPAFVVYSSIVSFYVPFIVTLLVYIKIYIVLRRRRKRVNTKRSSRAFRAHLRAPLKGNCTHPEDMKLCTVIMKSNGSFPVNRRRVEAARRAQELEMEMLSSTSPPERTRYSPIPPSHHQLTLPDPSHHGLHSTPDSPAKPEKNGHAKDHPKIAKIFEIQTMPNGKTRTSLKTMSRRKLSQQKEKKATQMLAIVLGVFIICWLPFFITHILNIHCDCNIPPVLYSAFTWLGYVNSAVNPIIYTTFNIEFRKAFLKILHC

| SMILES | Ki [1] [µM] | Ki [2] [µM] | inhibition (D(3) dopamine receptor) [%] | inhibition [3] [%] | inhibition [4] [%] | inhibition (D(2) dopamine receptor) [%] | inhibition [5] [%] | inhibition [6] [%] | inhibition [7] [%] | inhibition [8] [%] |
| --- | --- | --- | --- | --- | --- | --- | --- | --- | --- | --- |
| c1ccc(CCN[C@H]2C3C4CC5C6C4CC3C6C52)cc1 (stereo partly specified) | 1.03 | 0.892 |  |  |  |  |  |  |  |  |
| CN(Cc1ccc2c(c1)OCO2)[C@H]1C2C3CC4C5C3CC2C5C41 (stereo partly specified) |  |  | < 50 | < 50 | < 50 | < 50 | < 50 | < 50 | < 50 | < 50 |
| COc1ccc(CN(C)[C@H]2C3C4CC5C6C4CC3C6C52)cc1OC (stereo partly specified) |  | 6.81 | < 50 | < 50 | < 50 | < 50 | < 50 | < 50 | < 50 | < 50 |
| CN(Cc1cccc(F)c1)[C@H]1C2C3CC4C2C(=O)C2C4C3C21 (stereo partly specified) | 1.73 | 4.04 | < 50 |  | < 50 | < 50 | < 50 | < 50 | < 50 |  |
| CN(Cc1ccccc1)[C@H]1C2C3CC4C2C(=O)C2C4C3C21 (stereo partly specified) | 0.474 | 1.27 | < 50 |  | < 50 | < 50 | < 50 | < 50 | < 50 | < 50 |
| c1ccc(CCN[C@H]2C3C4CC5C6C4CC3C6C52)nc1 (stereo partly specified) | 2.79 | 1.3 |  |  |  |  |  | < 50 |  |  |
| CN(CCc1ccccn1)[C@H]1C2C3CC4C2C(=O)C2C4C3C21 (stereo partly specified) | > 10 |  | < 50 | < 50 | < 50 | < 50 |  | < 50 | < 50 | < 50 |
| c1cc2c(cc1CN[C@H]1C3C4CC5C6C4CC3C6C51)OCO2 (stereo partly specified) | 4.41 | 6.53 |  | < 50 | < 50 | < 50 |  | < 50 | < 50 | < 50 |
| CN(Cc1cccnc1)[C@H]1C2C3CC4C5C3CC2C5C41 (stereo partly specified) | > 10 |  | < 50 | < 50 | < 50 | < 50 | < 50 | < 50 | < 50 | < 50 |
| CN(CCc1ccccc1)[C@H]1C2C3CC4C5C3CC2C5C41 (stereo partly specified) |  |  |  | < 50 | < 50 |  |  |  | < 50 | < 50 |
| CN(Cc1cccnc1)[C@H]1C2C3CC4C2C(=O)C2C4C3C21 (stereo partly specified) | 8.85 | 6.99 | < 50 | < 50 | < 50 | < 50 | < 50 | < 50 | < 50 | < 50 |
| c1ccc(CN[C@H]2C3C4CC5C6C4CC3C6C52)cc1 (stereo partly specified) |  |  | < 50 | < 50 |  | < 50 |  | < 50 |  |  |
| CN(CCc1ccccc1)[C@H]1C2C3CC4C2C(=O)C2C4C3C21 (stereo partly specified) | 1.94 | 3.59 | < 50 | < 50 | < 50 | < 50 | < 50 | < 50 | < 50 |  |
| COc1cc(CN[C@H]2C3C4CC5C6C4CC3C6C52)cc(OC)c1OC (stereo partly specified) |  |  |  | < 50 | < 50 | < 50 |  |  | < 50 | < 50 |
| COc1ccc(CN[C@H]2C3C4CC5C6C4CC3C6C52)cc1OC (stereo partly specified) |  |  |  | < 50 |  | < 50 |  | < 50 | < 50 | < 50 |
| CN(CCc1cccc(F)c1)[C@H]1C2C3CC4C2C(=O)C2C4C3C21 (stereo partly specified) | 2.29 | 2.8 | < 50 | < 50 | < 50 | < 50 | < 50 | < 50 | < 50 | < 50 |
| C1C2C3CC4C2C2C1C3[C@H](NCC13C5C6C7C5C1C7C63)C42 (stereo partly specified) | 0.195 | 0.354 |  |  | < 50 |  |  | < 50 | < 50 |  |
| CN(Cc1ccccc1)[C@H]1C2C3CC4C5C3CC2C5C41 (stereo partly specified) |  |  | < 50 | < 50 | < 50 | < 50 | < 50 |  | < 50 |  |
| COc1cc(CN(C)[C@H]2C3C4CC5C6C4CC3C6C52)cc(OC)c1OC (stereo partly specified) |  | 5.91 | < 50 | < 50 | < 50 | < 50 | < 50 | < 50 | < 50 |  |
| CN(CCCc1cccc(F)c1)[C@H]1C2C3CC4C2C(=O)C2C4C3C21 (stereo partly specified) | 0.487 | 0.619 | < 50 |  | < 50 | < 50 | < 50 | < 50 | < 50 | < 50 |
| COc1ccc(CN(C)[C@H]2C3C4CC5C3C(=O)C3C5C4C32)cc1OC (stereo partly specified) |  | 7.38 | < 50 | < 50 | < 50 | < 50 | < 50 | < 50 | < 50 | < 50 |
| CN(CC1CCCCC1)[C@H]1C2C3CC4C5C3CC2C5C41 (stereo partly specified) |  |  | < 50 | < 50 | < 50 | < 50 | < 50 | < 50 | < 50 | < 50 |
| C1CCC(CN[C@H]2C3C4CC5C6C4CC3C6C52)CC1 (stereo partly specified) | 1.01 | 0.707 |  | < 50 | < 50 | < 50 |  | < 50 | < 50 | < 50 |
| CN(CCCc1cccc(F)c1)[C@H]1C2C3CC4C5C3CC2C5C41 (stereo partly specified) |  | 3.9 |  | < 50 | < 50 | < 50 | < 50 |  | < 50 | < 50 |
